Laboratory results: patent publication US8034826B2, “Cycloalkane[B]azaindole antagonists of prostaglandin D2 receptors” (Panmira Pharmaceuticals, LLC, priority 2008, dated 2011)

Columns and labels:
[1] = Plasma concentrations of the compound in mice of the allergic rhinitis model; format: in vivo; conditions: female, BALB/c, mouse, 10 mg/kg as the sodium salt, oral
Procedure: The compounds ability to inhibit allergen-induced sneezing and nasal rubbing is assessed using a mouse model of allergic rhinitis. Methods were adapted from those detailed in Nakaya, M., et al. 2006, Laboratory Investigation, 86:917-926. Female BALB/c mice (20-25 g) are immunized by an intraperitoneal injection (i.p.) of 10 μg ovalbumin (OVA) complexed with alum in a volume 0.2 mL on days 0 and 7. Fourteen days later (day 21) mice are challenged intranasally with 20 μl of a 10 mg/mL solution of OVA. The challenge period occurs daily from days 21 to day 23. Mice (5-7/group) are randomly assigned to receive either compound or vehicle and are treated by oral gavage 1 hour prior to OVA challenge. The number of sneezes and nasal rubs are counted by an independent blinded observe during a period of 8 minutes immediately following OVA challenge on days 21, 23 and […]. A significant increase in allergen-induced sneezing and nasal rubbing occurs over the 3-day challenge period. Inhibition of this effect by select compounds is determined statistically using Graphpad prism.

human DP2 receptor = target: T1, human DP2 receptor (Homo sapiens, UniProt Q9Y5Y4); test: DP2/CRTH2 radioligand binding assay using [3H]PGD2; conditions: membranes of HEK293 cells expressing recombinant human DP2, 1 nM [3H]PGD2; read-out: hDP2
T1 construct: expressed in transfected cells
T1 sequence (Q9Y5Y4 1-395): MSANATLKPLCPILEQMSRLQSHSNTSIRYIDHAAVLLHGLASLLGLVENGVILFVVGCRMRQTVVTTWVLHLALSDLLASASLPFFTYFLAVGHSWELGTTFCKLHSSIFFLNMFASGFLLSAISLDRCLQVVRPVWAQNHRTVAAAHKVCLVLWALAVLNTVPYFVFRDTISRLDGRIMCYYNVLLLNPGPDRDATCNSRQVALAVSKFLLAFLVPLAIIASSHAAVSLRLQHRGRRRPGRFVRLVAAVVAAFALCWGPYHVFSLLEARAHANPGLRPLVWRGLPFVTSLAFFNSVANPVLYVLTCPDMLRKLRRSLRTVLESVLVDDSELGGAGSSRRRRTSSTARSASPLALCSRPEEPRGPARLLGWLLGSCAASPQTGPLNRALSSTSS
Procedure: The ability of a compound to bind to the human DP2 receptor is assessed via a radioligand binding assay using [^3H]PGD2. HEK293 cells stably expressing recombinant human DP2 are resuspended in 10 mM Hepes, 7.4 containing 1 mM DTT, lysed and centrifuged at 75,000×g to pellet the membranes. The membranes are resuspended in 10 mM Hepes, 7.4 containing 1 mM DTT and 10% glycerol to approximately 5 mg protein/ml. Membranes (2-10 μg protein/well) are incubated in 96-well plates with 1 nM [^3H]PGD2 and test compound in Assay Buffer (50 mM Hepes, 10 mM MnCl2, 1 mM EDTA, plus or minus 0.2% human serum albumin, pH 7.4) for 60 minutes at room temperature. The reactions are terminated by rapid filtration through Whatman GF/C glass fibre filter plates. The filter plates were pre-soaked in 0.33% polyethylenimine for 30 minutes at room temperature then washed in Wash Buffer (50 mM Hepes, 0.5 M NaCl pH 7.4) prior to harvesting. After harvesting, the filter plates are washed 3 times with 1 ml cold Wash Buffer then dried. Scintillant is then added to the plates and the radioactivity retained on the filters is determined on a Packard TopCount (Perkin Elmer). Specific binding is determined as total radioactive binding minus non-specific binding in the presence of 10 μM PGD2. IC50s were determined using GraphPad prism analysis of drug titration curves.

| SMILES | Cmax [1] | concentration at 8 h ([1]; at 8 hours, read-out: Plasma Cmin at 8 hours) | IC50 (human DP2 receptor) |
| --- | --- | --- | --- |
| CN(C1CCc2c(c3ncccc3n2CC(=O)O)C1)S(=O)(=O)c1ccc(F)cc1 (racemic) [Compound 2, {8-[(4-fluoro-benzenesulfonyl)-methyl-amino]-6,7,8,9-tetrahydro-pyrido[3,2-b]indol-5-yl}-acetic acid] | 770 nM | 120 nM | – |
| O=C(O)CCn1c2c(c3ccccc31)C[C@H](NS(=O)(=O)c1ccc(F)cc1)CC2 [Ramatroban] | – | – | > 100 nM |
